Source: paper PMC2894972, “Protein-Protein Interaction Antagonists as Novel Inhibitors of Non-Canonical Polyubiquitylation” (PLoS ONE, 2010)

Biological target: T1, Ubc13-Uev1 heterodimer (Homo sapiens, UniProt P61088)
T1 construct: gene UBE2N; heterodimer of purified recombinant Ubc13 and Uev1; with Ubiquitin-conjugating enzyme E2 variant 1
Experiment: surface plasmon resonance competition: Ubc13 preincubated with compound, injected over immobilized Uev1
Format: binding
Settings: inhibition of Ubc13-Uev1 interaction; Ubc13 400 nM; 10 mM HEPES, 0.15 M NaCl, pH 7.4; legend prints 1.1 µM

T1 sequence (P61088 whole entry): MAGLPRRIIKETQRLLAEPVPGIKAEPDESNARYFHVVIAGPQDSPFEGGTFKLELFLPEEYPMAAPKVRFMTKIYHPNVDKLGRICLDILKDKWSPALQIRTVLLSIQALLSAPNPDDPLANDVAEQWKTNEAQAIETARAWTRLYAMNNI
T1 sequence (Q13404 2-147 partner): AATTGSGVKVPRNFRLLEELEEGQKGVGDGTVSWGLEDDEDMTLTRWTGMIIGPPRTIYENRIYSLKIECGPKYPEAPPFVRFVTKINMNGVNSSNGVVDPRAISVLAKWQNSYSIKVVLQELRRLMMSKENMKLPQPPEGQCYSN

IC50: 1100 nM
Compound: NC(=O)CN(CCc1ccccn1)C(=O)CC1C(=O)N(CCc2ccc(F)cc2)CC(=O)N1CCc1ccc(F)cc1 (stereo not shown) [IIa, compound IIa]
